Assay results from US8969542B2, “HPV polyepitope constructs and uses thereof” (priority 2007, dated 2015).
Where a SMILES comes first, the peptide text is derived from it. Where no end group is shown, it is not given here.

Key:
[1] = test system: CD8+ spleen cells of HLA transgenic mice (HLA-A01/Kb, F1 HLA-A02/KbxBalb/c, HLA-A11/Kb, HLA-A24/Kb); test: Immunogenicity after peptide pool/IFA immunization, direct ex vivo IFNγ ELISPOT; assay type: in vivo, mouse; conditions: for Peptide Pool SFC/10^6 cells Delta: HLA transgenic mice (HLA-A01/A02/A11/A24), CD8+ cells restimulated with WT peptide 10 μg/mL
Description: CTL binding epitopes were evaluated for their immunogenicity in different HLA transgenic mice. To this, a single immunization with CTL peptide pools together with a common HTL epitope emulsified in IFA was performed and up to 14 days later, CD8+ spleen cells were isolated and evaluated for epitope specificity using a direct ex vivo IFNγ ELISPOT assay.
Peptides were dissolved in DMSO at a concentration of 10 mg/mL. For each of the 4 DNA constructs, the corresponding HLA-restricted peptides were pooled per HLA type (5 to 7 CTL peptides/pool). A known HTL peptide ([…]) was added and the peptide pools were diluted in PBS to the required peptide concentration (i.e. 25 μg of each CTL peptide and 120 μg HTL peptide in 50 μl). After adding an equal volume of IFA (Pierce, lot DG56079), the mixture was emulsified by forcing it through a small orifice. Mice were immunized subcutaneously at the base of the tail with 50 μl peptide/IFA mixture.
As negative control for the peptide-immunized mice, 18 mice (in total) were injected with a PBS/IFA mixture.
(§1) Mice were euthanized and spleen cells (SPC) were isolated 13 days after immunization. […] Spleen cells of DNA- and peptide-immunized HLA-A11/Kb mice were analyzed individually. SPC of all negative control mice were pooled per 2 mice, resulting in 3 data points for each peptide tested.
(§2) A direct ex vivo IFNγ ELISPOT assay was used as surrogate CTL readout. Basically, purified CD8+ cells were incubated with the individual HPV-specific HLA-restricted peptides (10 μg/mL) loaded on the appropriate antigen presenting cells (APC), in anti-mouse IFNγ antibody-coated ELISPOT plates. […] After 20 h incubation, IFNγ-producing cells were visualized by further developing the plates with biotinylated anti-mouse IFNγ antibody, streptavidin-HRP and AEC as substrate.
(§3) Some of the CTL epitopes included in the DNA constructs are analoged sequences of the wild type viral epitopes. For these particular epitopes, only the wild type sequences were used as in vitro stimulus for CTL readout.

[2] = test system: CD8+ spleen cells of HLA transgenic mice (HLA-A01/Kb, F1 HLA-A02/KbxBalb/c, HLA-A11/Kb, HLA-A24/Kb); test: Immunogenicity after HPV DNA construct immunization, direct ex vivo IFNγ ELISPOT; assay type: in vivo, mouse; conditions: for ICCG6137 SFC/10^6 cells Delta / ICCG6138 SFC/10^6 cells Delta: HLA transgenic mice (HLA-A01/A02/A11/A24), CD8+ cells restimulated with WT peptide 10 μg/mL; for Delta SFC/10^6 cells: HLA-A24 epitopes, HLA-A24/Kb mice, median of mouse pools
Description: The immunogenicity of HPV HLA class I-restricted epitopes encoded in the DNA constructs was tested in the relevant HLA transgenic mice. […] To ensure an equal distribution of mice between different groups, a randomisation procedure based on body weight was performed. Female and male mice (age between 8 and 24 weeks) were ranked by body weight, extreme light or heavy animals were excluded. The remaining animals were grouped by sequentially assigning animals for the 2 experiments.
Mice were pre-treated with cardiotoxin (Sigma, C9759) on day −4 by bilateral intramuscular injection of 100 μl (2×50 μl) of a 10 μM cardiotoxin solution. Four days later, all mice were immunised with 100 μg HPV-DNA plasmid (diluted to 1 mg/ml in PBS) by bilateral injection of 50 μg in the m. tibialis anterior. […]
as §1, §2, §3

HLA A2402 = HLA A2402 (Homo sapiens, UniProt P04439, D101N/D140Y/D185E/E176V/E190D/F33S/G103R/G107R/I119L/I121M/I306V/K335N/L105A/L180Q/L300P/N151K/N90K/Q86E/Q94H/R106L/R138H/R89G/T104I/T345S/V100E/W191G/Y123F); test: HLA class I competition binding assay using soluble HLA
HLA A3002 = HLA A3002 (Homo sapiens, UniProt P04439, D101N/D140H/D185E/E176R/F33S/G80R/H175R/K168Q/Q94H/R138E/R41S/V100E); test: as above
HLA A3101 = HLA A3101 (Homo sapiens, UniProt P04439, A270S/D185E/E176V/E277Q/F33T/G231S/G80R/H175R/I121M/I218V/I322F/K168Q/L300P/L318F/M331R/P217A/Q94H/R138Q/T323A/T345S/T97I/V358M); test: as above
HLA A0301 = target: T1, HLA A0301 (Homo sapiens, UniProt P04439); test: as above
T1 construct: endogenous in cells

HLA A6801 = HLA A6801 (Homo sapiens, UniProt P04439, A269V/D185E/E176V/E277Q/E87N/F33Y/G231S/I121M/I166T/I218V/L180W/L300P/L318F/N151K/P208A/P217A/Q86R/R169H/T345S); test: as above
HLA A2302 = HLA A2302 (Homo sapiens, UniProt P04439, D101N/D140Y/D185E/E176V/E190D/F33S/G103R/G107R/H175R/I119L/I121M/I306V/K168Q/K335N/L105A/L180W/L300P/N151K/N90K/P307H/Q86E/Q94H/R106L/R138H/R89G/T104I/T345S/V100E/W191G/Y123F); test: as above
HLA A2902 = HLA A2902 (Homo sapiens, UniProt P04439, A270S/D101N/D185E/E176V/E277Q/E87Q/F33T/G231S/H175R/I121M/I218V/I322F/K168Q/L300P/L318F/M331R/P208A/P217A/Q86L/T323A/T345S/V100A/V358M); test: as above
HLA A3301 = HLA A3301 (Homo sapiens, UniProt P04439, A270S/D185E/E176V/E277Q/E87N/F33T/G231S/H175R/I121M/I218V/I322F/K168Q/K210R/L300P/L318F/M331R/P217A/Q86R/Q94H/R138Q/T323A/T345S/T97I/V358M/Y195H); test: as above
[3] = immunization with pool of peptides emulsified in IFA, IFNγ ELISPOT
[4] = immunization with DNA construct ICCG 6137, IFNγ ELISPOT
[5] = immunization with DNA construct ICCG 6138, IFNγ ELISPOT

Compound	IC50 (HLA A2402) [µM]	IC50 (HLA A3002) [µM]	IC50 (HLA A2302) [µM]	IC50 (HLA A2902) [µM]	further results
154 (FYSRIRELRY; Human papilloma virus) [compound 154]	–	–	–	–	Peptide Pool SFC/10^6 cells Delta [1, 3]: 165 SFC/10^6 cells; Peptide Pool SFC/10^6 cells Ratio ([1]; immunization with pool of peptides emulsified in IFA, HLA transgenic mice, response ratio, WT peptide 10 μg/mL, IFNγ ELISPOT): 7.3; ICCG6137 SFC/10^6 cells Delta [2, 4]: 45 SFC/10^6 cells; ICCG6137 SFC/10^6 cells Ratio ([2]; immunization with DNA construct ICCG 6137, HLA transgenic mice, response ratio, WT peptide 10 μg/mL, IFNγ ELISPOT): 2.0; ICCG6138 SFC/10^6 cells Delta [2, 5]: 33 SFC/10^6 cells; ICCG6138 SFC/10^6 cells Ratio ([2]; immunization with DNA construct ICCG 6138, HLA transgenic mice, response ratio, WT peptide 10 μg/mL, IFNγ ELISPOT): 1.3
CC[C@H](C)[C@H](NC(=O)[C@H](Cc1ccc(O)cc1)NC(=O)[C@H](Cc1ccccc1)NC(=O)[C@@H](NC(=O)[C@H](CC(N)=O)NC(=O)[C@H](Cc1ccc(O)cc1)NC(=O)CN)[C@@H](C)O)C(=O)N[C@@H](CCC(=O)O)C(=O)N[C@@H](Cc1ccccc1)C(=O)O [compound 41]	0.016	1.26	–	–	–
CSCC[C@H](N)C(=O)N[C@@H](Cc1ccc(O)cc1)C(=O)N[C@H](C(=O)N[C@@H](CS)C(=O)N[C@@H](CS)C(=O)N[C@@H](Cc1c[nH]cn1)C(=O)N[C@H](C(=O)N1CCC[C@H]1C(=O)N[C@@H](CC(C)C)C(=O)O)C(C)C)C(C)C [compound 42] (H-MYVCCHVPL-OH; N-terminus and C-terminus assumed)	–	–	–	–	Delta SFC/10^6 cells ([1]; HLA-A24 epitopes, HLA-A24/Kb mice, Peptide Pool, median of mouse pools): 1 SFC/10^6 cells; Delta SFC/10^6 cells ([2]; DNA construct ICCG6149): 1 SFC/10^6 cells; Delta SFC/10^6 cells ([2]; DNA construct ICCG6150): 1 SFC/10^6 cells
CC(C)C[C@H](NC(=O)[C@H](CC(C)C)NC(=O)[C@@H](NC(=O)[C@H](CS)NC(=O)[C@H](Cc1ccccc1)NC(=O)[C@H](CS)NC(=O)[C@H](CC(C)C)NC(=O)[C@H](CC(C)C)NC(=O)[C@@H](N)Cc1ccccc1)C(C)C)C(=O)O [compound 51] (H-FLLCFCVLL-OH; N-terminus and C-terminus assumed)	–	–	–	–	Peptide Pool SFC/10^6 cells Delta [1, 3]: 195 SFC/10^6 cells; ICCG6137 SFC/10^6 cells Delta [2, 4]: 8 SFC/10^6 cells; ICCG6138 SFC/10^6 cells Delta [2, 5]: 8 SFC/10^6 cells
CC(C)C[C@H](NC(=O)[C@H](CS)NC(=O)[C@@H](NC(=O)[C@H](CO)NC(=O)[C@H](Cc1ccccc1)NC(=O)[C@H](CS)NC(=O)[C@H](CC(C)C)NC(=O)[C@H](CC(C)C)NC(=O)[C@@H](N)Cc1ccccc1)C(C)C)C(=O)O [compound 75] (H-FLLCFSVCL-OH; N-terminus and C-terminus assumed)	–	–	–	–	Peptide Pool SFC/10^6 cells Delta [1, 3]: 75 SFC/10^6 cells; ICCG6137 SFC/10^6 cells Delta [2, 4]: 1 SFC/10^6 cells; ICCG6138 SFC/10^6 cells Delta [2, 5]: 1 SFC/10^6 cells
ATLQDIVLH [compound 38]	–	–	–	–	IC50 (HLA A3101): 0.543 µM; IC50 (HLA A0301): 0.211 µM
DSVYGDTLER [compound 37]	–	–	–	–	IC50 (HLA A6801): 0.044 µM; IC50 (HLA A3101): 0.246 µM; IC50 (HLA A0301): 0.193 µM
FYSKVSEFRW [compound 65]	0.0045	1.36	0.0088	1.78	–
FYSRIRELRF [compound 88]	0.0032	> 20	0.001	–	–
HYTNWKFIF [compound 63]	0.0085	4.85	0.016	0.433	–
KSLFGMSLMK [compound 15]	–	–	–	–	IC50 (HLA A6801): 0.887 µM; IC50 (HLA A3101): 0.23 µM; IC50 (HLA A0301): 0.0039 µM
LSSALEIPY [compound 46]	–	0.175	–	–	–
LYGVSFSEL [compound 18]	0.0031	> 20	0.0072	> 20	–
LYNLLIRCF [compound 44]	–	–	0.01	> 20	–
NTELYNLLI [compound 70]	–	> 20	–	> 20	–
PYLHSRLVVF [compound 61]	0.0387	–	0.0028	4.37	–
QVVPAYNISK [compound 35]	–	–	–	–	IC50 (HLA A0301): 0.308 µM

Compound	IC50 (HLA A2402) [µM]	IC50 (HLA A3002) [µM]	IC50 (HLA A2302) [µM]	IC50 (HLA A2902) [µM]	further results
RQMNMSQWIK [compound 79]	–	–	–	–	IC50 (HLA A6801): 2.56 µM; IC50 (HLA A3101): 0.045 µM
RTEVYQFAFR [compound 82]	–	–	–	–	IC50 (HLA A6801): 0.439 µM; IC50 (HLA A3101): 0.008 µM; IC50 (HLA A3301): 0.696 µM
STAAALYWYK [compound 13]	–	–	–	–	IC50 (HLA A3301): 0.128 µM
STVSVGTAK [compound 34]	–	–	–	–	IC50 (HLA A3301): > 20 µM
SYFGMSFIHF [compound 39]	0.0175	1.54	–	–	–
TVSATQLVK [compound 33]	–	–	–	–	IC50 (HLA A3101): 6.14 µM
VFTFPHAFPF [compound 84]	0.0904	> 20	0.0159	0.057	–
VFTFPNPFPF [compound 62]	–	> 20	0.012	0.603	–
VTTRYPLLR [compound 81]	–	–	–	–	IC50 (HLA A6801): 3.15 µM; IC50 (HLA A0301): 0.158 µM; IC50 (HLA A3301): > 20 µM
VVFIYIPLF [compound 64]	0.276	0.268	–	0.302	–
VYDFAFRDLCI [compound 20]	0.022	> 20	0.0089	> 20	–
VYGTTLEKL [compound 66]	0.026	1.24	0.0082	> 20	–
VYQFAFKDL [compound 87]	0.004	–	0.0011	> 20	–
VYVCAFAWLL [compound 86]	0.0084	> 20	0.0081	2.35	–
VYVFCFLLPM [compound 43]	0.178	> 20	0.057	5.28	–
YYITETGIW [compound 85]	0.0085	> 20	0.002	> 20	–
YYMTDAGTW [compound 40]	0.0032	–	–	3.41	–
